This is an account of results in PubChem BioAssay (NCI).

One may read the TGI as the concentration giving total growth inhibition. One may read the GI50 as the concentration at which growth is held to half of that of the control.

What all share (assay): DTP human tumour cell line panel, 48 h
For assay [1], the system named is UO-31 renal.
Assay [2] deals with SN12C renal.
For assay [3], the system named is HCT-15 colon.
Assay [4] relates to COLO 205 colon.
In assay [5] the test system is KM12 colon.
Assay [6] relates to TK-10 renal.
Assay [7] has as its system SW-620 colon.
Assay [8] has as its system SNB-19 CNS.
Assay [9] has as its system HOP-92 NSCLC.
Assay [10] concerns PC-3 prostate.

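All cell lines were grown in 96-well plates and treated with compound for 48 hours. Here, GI50 denotes the concentration required for 50% inhibition of growth. TGI: total growth inhibition.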

As to `Cc1cccc2[s+]snc12`, the TGI in assay [1] was over 100 µM; in assay [2], over 100 µM; in assay [3], over 72.3 µM; in assay [4] it was 50.8 µM; in [5], over 100 µM; in assay [6], over 100 µM. Besides, the concentration for total growth inhibition (TGI) is 48.9 µM in assay [7], over 100 µM in [8] and 44.9 µM in assay [9].

As for `CCOC(=O)/C(C#N)=C1\c2c([nH]c(=S)[nH]c2=O)Oc2ccc3ccccc3c21`, the total growth inhibition concentration (TGI) in assay [1], in assay [2], in assay [3], in assay [4], in [10] and in assay [5] was over 100 µM throughout. The total growth inhibition concentration (TGI) was over 100 µM in assay [6], 12.2 µM in assay [7], 58.5 µM in [8] and over 100 µM in [9].

For the compound `NC(=O)C(c1ccccc1)N1OC2C(=O)N(c3cccc4ccccc34)C(=O)C2C1c1c2ccccc2c(Cl)c2ccccc12` (configuration not stated), the TGI is 20.3 µM in [1]; 16.3 µM in [2]; 16.4 µM in assay [3]; 14.9 µM in assay [4]; 18.6 µM in [10]; 7.75 µM in [5]. Also, the TGI in assay [6] was 22.8 µM; in assay [7] it was over 50 µM; in assay [8], 18.9 µM; in [9], 32 µM.

As for `CCC(=O)NC(Nc1ccc(O)cc1)(C(F)(F)F)C(F)(F)F`, the TGI in assay [1], in assay [2], in [3], in assay [5], in assay [6] and in assay [8] was over 100 µM in each case.

On to `C/C(=N/O)c1cccc(Nc2nc3ccc(Cl)cc3c3[nH]c4ccccc4c23)c1`, for which the TGI in assay [1] turned out to be 8.86 µM; in [2], 9.53 µM; in assay [3], 5.03 µM; in [4], 4.15 µM; in [10] it was 4.7 µM; in assay [5], 3.79 µM. Also, the values for the total growth inhibition concentration (TGI) in assay [6], in assay [7] and in [8] were 6.51 µM, 5.03 µM and 12 µM, respectively.

For `NNc1nc2ccccc2s1`, the TGI in assay [1], in [2], in [3], in [4], in assay [10] and in assay [5] was over 100 µM each time. The TGI in assay [6], in assay [7], in [8] and in assay [9] was over 100 µM each time.

On to `CCC1=CC2Cc3nc4cc(Cl)ccc4c(N)c3C(C1)C2` (configuration not stated), for which the TGI is 20.6 µM in assay [1]; 28.2 µM in [2]; over 37.7 µM in [3]; 7.11 µM in assay [4]; 18.4 µM in assay [10]; 19.5 µM in assay [5]. For the same compound, the total growth inhibition concentration (TGI) in [6] was determined as 13.6 µM; in [7] it was 36 µM; in assay [8], 22.7 µM; in assay [9] it was 6.48 µM.

As to `NC(N)=N/N=C/c1c(-c2ccc([N+](=O)[O-])cc2)nc2n1CCS2`, the TGI in [1] stood at 30.2 µM; in assay [2], 19.2 µM; in [3], 36.7 µM; in [4], 7.8 µM; in [10], 27.7 µM; in [5], 21.7 µM. Further, the TGI turned out to be 31.5 µM in [6], 7.33 µM in assay [7], 11.4 µM in assay [8] and 40.5 µM in assay [9].

With `O=[N+]([O-])c1ccc(Nc2nc3ccccc3s2)cc1`, the TGI in [1] was 66.5 µM; in assay [3] it was over 100 µM; in assay [10], 35.1 µM; in assay [5] it was over 100 µM; in assay [6] it was 88 µM; in [7], over 100 µM. The results for the TGI in assay [8] and in [9] were over 100 µM and 60.9 µM, respectively.

In the case of `CC1=CC(=O)C(=O)C2=C1OC1(C2)C(C)CCC2C3(C)CCC(O)C(C)(C)C3CCC21C` (configuration not stated), the total growth inhibition concentration (TGI) in assay [1] is 34.4 µM; in assay [2], over 100 µM; in assay [3], 42.1 µM; in assay [4] it was 32.6 µM; in assay [5], 29.9 µM; in [6], 34.5 µM. In addition, the total growth inhibition concentration (TGI) was determined as 46.1 µM in assay [7], 32.2 µM in [8] and 33.1 µM in assay [9].

Take `N=C(N)c1csc([C@@H]2O[C@H](CO)[C@@H](O)[C@H]2O)n1`: the total growth inhibition concentration (TGI) in assay [1], in assay [2], in assay [3], in assay [5], in assay [6] and in assay [7] was over 100 µM throughout. In assay [8], this compound registered a concentration for total growth inhibition (TGI) of over 100 µM.

For `COc1ccc2c(c1)N=C1CSC(c3cccc(Br)c3)N1C2` (configuration not stated), the TGI in [1] was found to be 30.7 µM; in assay [2], 39.7 µM; in assay [3] it was 35.5 µM; in assay [4] it was 68.7 µM; in [10] it was 38.4 µM; in assay [5], 36 µM. Besides, the TGI is 41 µM in [6], over 100 µM in [7], 78.8 µM in [8] and 53.2 µM in assay [9].

Take `CC12CCC(C(=O)N3CC=CCC3)(OC1=O)C2(C)C` (configuration not stated): the concentration for total growth inhibition (TGI) in assay [1], in assay [2], in assay [3], in assay [4], in [5] and in [7] was over 100 µM in each case. Further, the TGI in assay [8] and in [9] was over 100 µM each time.

With `c1cn2cc(-c3ccc4ncn(C5CCCCC5)c4c3)nc(-c3ccc4c(c3)ncn4C3CCCCC3)c2n1`, the GI50 in assay [1] is 1.49 µM; in assay [2], 2.05 µM; in [4] it was 1.93 µM; in assay [8], 2.11 µM; in assay [9] it was 1.54 µM. For the same compound, the concentration for total growth inhibition (TGI) in [1] amounted to 2.85 µM; in [2] it was 4.53 µM; in assay [4], 3.79 µM; in assay [8], 4.95 µM; in assay [9] it was 3.22 µM.

In the case of `O=C1C(=O)c2ccccc2C(O)=C1CN(CCCl)CCCl`, the TGI in assay [1], in assay [2], in assay [3], in assay [5], in assay [6] and in [7] was over 100 µM each time. The total growth inhibition concentration (TGI) in assay [8] and in assay [9] was over 100 µM throughout.

Take `COc1cc(C2=C(C#N)C(N)OC3=C2COc2ccccc23)cc(OC)c1OC` (configuration not stated): the total growth inhibition concentration (TGI) is 12.7 µM in [1]; 39.1 µM in assay [2]; over 100 µM in [3]; over 100 µM in [4]; 50.6 µM in assay [10]; over 100 µM in assay [5]. In addition, the concentration for total growth inhibition (TGI) in assay [6] was 30.2 µM; in assay [7] it was over 100 µM; in assay [8], 30.6 µM; in assay [9], over 100 µM.

Take `Nc1ccc2c3c(n(CCCCl)c(=O)c2c1)-c1cc2c(cc1C3=O)OCO2`: the GI50 in assay [1] was 48.1 µM; in [2], over 100 µM; in [3] it was over 100 µM; in assay [4], over 100 µM; in [10], over 100 µM; in assay [5], 41.6 µM. The GI50 in [6], in [7], in assay [8] and in [9] was over 100 µM throughout. Further, the total growth inhibition concentration (TGI) in [1], in assay [2], in [3], in assay [4], in assay [10] and in assay [5] was over 100 µM throughout. In addition, the concentration for total growth inhibition (TGI) in assay [6], in assay [7], in assay [8] and in assay [9] was over 100 µM in each case.

As for `COC1CC(OC2CCC3(C)C(CCC45CCC(C6=CC(=O)OC6)C(C)(CCC43)C5=O)C2)OC(C)C1O` (configuration not stated), the TGI in [1] was 35.8 µM; in assay [2], 61.9 µM; in [3], 52.2 µM; in assay [4], over 100 µM; in assay [10] it was over 100 µM; in assay [5] it was over 100 µM. Moreover, the TGI in assay [6] was over 100 µM; in [7] it was over 100 µM; in assay [8], 63.6 µM; in assay [9], over 100 µM.

As for `O=C(O)C1Cc2c([nH]c3ccccc23)C=N1` (configuration not stated), the TGI is over 100 µM in assay [1]; over 100 µM in [2]; over 100 µM in [3]; over 100 µM in assay [4]; over 31.7 µM in assay [5]; over 100 µM in assay [7]. The TGI in assay [8] and in [9] was over 100 µM in each case.

As for `NC(CCP(=O)(O)CCC1C=CC=CC1)C(=O)O` (configuration not stated), the concentration for total growth inhibition (TGI) in [1], in assay [2], in assay [3], in assay [4], in assay [10] and in [5] was over 100 µM throughout. Moreover, the TGI in [6], in assay [7], in assay [8] and in assay [9] was over 100 µM in each case.
